The record followed here is US8871753B2, “Macrocyclic compounds and their use as kinase inhibitors” (Incyte Corporation, priority 2008, dated 2014).

Structures are written as SMILES. Structures can show the parent of a compound that is named as a salt. Where two headings read alike, the source gives them in different places.

What all share (type): biochemical
In test [1] the target is TYK2 (Homo sapiens, UniProt P29597). As to the kind of experiment: TYK2 kinase inhibition (Table A1).
Test [2] addresses T1, human JAK2 (a.a. 828-1132) (Homo sapiens, UniProt O60674).
T1 construct: JAK2 (a.a. 828-1132); His tag (N); made in house; host or cells: insect cells (baculovirus)
Briefly: In vitro JAK kinase assay (HTRF, phosphorylation of a biotinylated peptide), JAK2. A digest of the protocol:
(§1)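 Kinase reactions ran at room temperature for 1 h with ATP matched per isoform (JAK1 90 μM, JAK2 30 μM, JAK3 3 μM). After an EDTA stop, the phosphorylated biotin-peptide was read by HTRF using Eu-Py20 and SA-APC after 40 min binding.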
In general terms: TR-FRET usually uses a lanthanide donor and a delayed reading to cut background.

In test [3] the target is T2, Recombinant Human Anaplastic Lymphoma Kinase (Homo sapiens, UniProt Q9UM73).
T2 construct: purchased Invitrogen, Carlsbad, Calif
T2 sequence (Q9UM73 19-1620): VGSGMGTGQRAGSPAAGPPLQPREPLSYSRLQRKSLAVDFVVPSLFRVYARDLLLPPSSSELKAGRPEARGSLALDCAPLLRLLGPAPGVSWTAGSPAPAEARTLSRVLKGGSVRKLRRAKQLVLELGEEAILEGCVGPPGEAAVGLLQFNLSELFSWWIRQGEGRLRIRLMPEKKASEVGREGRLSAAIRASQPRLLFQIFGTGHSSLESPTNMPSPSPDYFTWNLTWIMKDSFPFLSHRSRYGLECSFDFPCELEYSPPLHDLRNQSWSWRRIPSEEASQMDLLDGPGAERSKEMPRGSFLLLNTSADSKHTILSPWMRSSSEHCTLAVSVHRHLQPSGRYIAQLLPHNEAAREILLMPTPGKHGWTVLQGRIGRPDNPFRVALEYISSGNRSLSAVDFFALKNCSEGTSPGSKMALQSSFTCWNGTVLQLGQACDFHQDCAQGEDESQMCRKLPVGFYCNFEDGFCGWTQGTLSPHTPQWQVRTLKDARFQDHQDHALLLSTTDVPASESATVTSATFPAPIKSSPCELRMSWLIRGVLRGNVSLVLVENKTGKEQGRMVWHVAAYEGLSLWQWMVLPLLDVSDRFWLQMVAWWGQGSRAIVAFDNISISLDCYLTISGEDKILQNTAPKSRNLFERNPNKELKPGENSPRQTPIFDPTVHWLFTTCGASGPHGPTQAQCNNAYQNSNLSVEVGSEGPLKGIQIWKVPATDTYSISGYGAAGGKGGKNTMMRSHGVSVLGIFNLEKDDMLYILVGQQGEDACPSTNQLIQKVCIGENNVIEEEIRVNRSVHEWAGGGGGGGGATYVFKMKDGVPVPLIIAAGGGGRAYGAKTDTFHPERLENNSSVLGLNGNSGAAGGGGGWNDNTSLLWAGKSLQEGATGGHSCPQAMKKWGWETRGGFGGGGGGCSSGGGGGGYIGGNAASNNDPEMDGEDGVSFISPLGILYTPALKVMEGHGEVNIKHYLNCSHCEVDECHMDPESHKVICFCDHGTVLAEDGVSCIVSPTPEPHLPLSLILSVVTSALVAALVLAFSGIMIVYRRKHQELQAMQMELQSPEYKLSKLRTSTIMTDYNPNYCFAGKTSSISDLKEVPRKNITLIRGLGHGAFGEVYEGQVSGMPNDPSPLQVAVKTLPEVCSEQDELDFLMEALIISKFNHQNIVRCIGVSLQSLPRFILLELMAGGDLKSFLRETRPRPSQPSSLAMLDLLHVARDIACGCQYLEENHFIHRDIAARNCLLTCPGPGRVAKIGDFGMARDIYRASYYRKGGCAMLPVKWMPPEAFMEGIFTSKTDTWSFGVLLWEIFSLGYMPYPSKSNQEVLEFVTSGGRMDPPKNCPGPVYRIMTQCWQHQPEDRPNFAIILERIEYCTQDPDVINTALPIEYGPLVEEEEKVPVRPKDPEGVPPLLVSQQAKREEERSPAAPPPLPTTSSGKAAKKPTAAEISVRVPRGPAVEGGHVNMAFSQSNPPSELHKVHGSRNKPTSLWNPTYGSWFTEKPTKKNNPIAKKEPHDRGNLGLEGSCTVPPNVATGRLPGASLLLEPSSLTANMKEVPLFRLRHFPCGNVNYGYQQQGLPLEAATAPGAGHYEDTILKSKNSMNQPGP
Briefly: ALK HTRF kinase assay. A digest of the protocol: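 Compounds were incubated with recombinant human ALK and a biotin-tagged peptide substrate. Product was captured with streptavidin-APC and probed with a europium anti-phosphotyrosine antibody, and plates were read for time-resolved fluorescence. Dose-response data were fitted to derive IC50.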

Test [4] addresses T3, human JAK1 (a.a. 837-1142) (Homo sapiens, UniProt P23458).
T3 construct: human JAK1 (a.a. 837-1142); His tag (N); made in house; host or cells: insect cells (baculovirus)
As to the kind of experiment: In vitro JAK kinase assay (HTRF, phosphorylation of a biotinylated peptide), JAK1. To be noted: read-out: JAK1 IC50. An outline of the steps:
as §1

The target of test [5] is T4, human JAK3 (a.a. 781-1124) (Homo sapiens, UniProt P52333).
T4 construct: JAK3 (a.a. 781-1124); His tag (N); made in house; host or cells: insect cells (baculovirus)
T4 sequence (P52333 781-1124): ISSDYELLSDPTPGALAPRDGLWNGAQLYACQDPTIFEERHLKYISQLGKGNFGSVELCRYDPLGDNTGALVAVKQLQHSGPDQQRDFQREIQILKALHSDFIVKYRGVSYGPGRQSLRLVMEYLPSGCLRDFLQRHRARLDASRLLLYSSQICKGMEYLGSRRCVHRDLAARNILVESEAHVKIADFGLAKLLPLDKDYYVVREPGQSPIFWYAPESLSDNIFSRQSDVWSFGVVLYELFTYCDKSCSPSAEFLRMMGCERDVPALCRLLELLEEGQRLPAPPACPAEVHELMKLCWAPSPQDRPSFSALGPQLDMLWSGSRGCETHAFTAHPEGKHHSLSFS
Briefly: In vitro JAK kinase assay (HTRF, phosphorylation of a biotinylated peptide), JAK3. A digest of the protocol: as §1

[6] abbreviates: Table B1, cells without percent sign.
Setting [7] is: method AA1 (30 μM ATP) or AA2 (1000 μM ATP), not stated per value.
Setting [8] is: compound at 500 nM or 1 mM, 90 μM ATP.
[9] abbreviates: method AA1 (90 μM ATP) or AA2 (1000 μM ATP), not stated per value.
Setting [10] is: method AA1 (3 μM ATP) or AA2 (1000 μM ATP), not stated per value.
Where [11] appears, read: compound at a concentration of 500 nM or 1 mM (not specified), cells shown as percentage.

T1 sequence (O60674 828-1132): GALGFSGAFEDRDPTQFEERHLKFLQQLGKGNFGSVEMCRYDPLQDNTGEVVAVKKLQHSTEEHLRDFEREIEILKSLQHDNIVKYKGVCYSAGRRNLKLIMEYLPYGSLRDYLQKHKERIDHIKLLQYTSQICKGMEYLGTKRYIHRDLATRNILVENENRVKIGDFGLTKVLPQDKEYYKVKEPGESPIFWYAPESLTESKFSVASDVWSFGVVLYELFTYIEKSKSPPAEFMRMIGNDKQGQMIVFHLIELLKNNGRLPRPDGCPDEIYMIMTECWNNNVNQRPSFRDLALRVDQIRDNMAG
T3 sequence (P23458 849-1154): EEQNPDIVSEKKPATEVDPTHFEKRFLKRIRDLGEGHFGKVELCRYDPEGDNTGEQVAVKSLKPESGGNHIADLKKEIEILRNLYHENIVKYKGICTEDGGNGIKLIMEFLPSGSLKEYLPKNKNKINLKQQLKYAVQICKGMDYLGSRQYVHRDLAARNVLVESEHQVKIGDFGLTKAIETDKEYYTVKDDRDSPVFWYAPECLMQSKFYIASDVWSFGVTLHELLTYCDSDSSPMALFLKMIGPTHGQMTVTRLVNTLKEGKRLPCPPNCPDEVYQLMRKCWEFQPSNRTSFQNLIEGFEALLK
TYK2, sequence (P29597 whole entry): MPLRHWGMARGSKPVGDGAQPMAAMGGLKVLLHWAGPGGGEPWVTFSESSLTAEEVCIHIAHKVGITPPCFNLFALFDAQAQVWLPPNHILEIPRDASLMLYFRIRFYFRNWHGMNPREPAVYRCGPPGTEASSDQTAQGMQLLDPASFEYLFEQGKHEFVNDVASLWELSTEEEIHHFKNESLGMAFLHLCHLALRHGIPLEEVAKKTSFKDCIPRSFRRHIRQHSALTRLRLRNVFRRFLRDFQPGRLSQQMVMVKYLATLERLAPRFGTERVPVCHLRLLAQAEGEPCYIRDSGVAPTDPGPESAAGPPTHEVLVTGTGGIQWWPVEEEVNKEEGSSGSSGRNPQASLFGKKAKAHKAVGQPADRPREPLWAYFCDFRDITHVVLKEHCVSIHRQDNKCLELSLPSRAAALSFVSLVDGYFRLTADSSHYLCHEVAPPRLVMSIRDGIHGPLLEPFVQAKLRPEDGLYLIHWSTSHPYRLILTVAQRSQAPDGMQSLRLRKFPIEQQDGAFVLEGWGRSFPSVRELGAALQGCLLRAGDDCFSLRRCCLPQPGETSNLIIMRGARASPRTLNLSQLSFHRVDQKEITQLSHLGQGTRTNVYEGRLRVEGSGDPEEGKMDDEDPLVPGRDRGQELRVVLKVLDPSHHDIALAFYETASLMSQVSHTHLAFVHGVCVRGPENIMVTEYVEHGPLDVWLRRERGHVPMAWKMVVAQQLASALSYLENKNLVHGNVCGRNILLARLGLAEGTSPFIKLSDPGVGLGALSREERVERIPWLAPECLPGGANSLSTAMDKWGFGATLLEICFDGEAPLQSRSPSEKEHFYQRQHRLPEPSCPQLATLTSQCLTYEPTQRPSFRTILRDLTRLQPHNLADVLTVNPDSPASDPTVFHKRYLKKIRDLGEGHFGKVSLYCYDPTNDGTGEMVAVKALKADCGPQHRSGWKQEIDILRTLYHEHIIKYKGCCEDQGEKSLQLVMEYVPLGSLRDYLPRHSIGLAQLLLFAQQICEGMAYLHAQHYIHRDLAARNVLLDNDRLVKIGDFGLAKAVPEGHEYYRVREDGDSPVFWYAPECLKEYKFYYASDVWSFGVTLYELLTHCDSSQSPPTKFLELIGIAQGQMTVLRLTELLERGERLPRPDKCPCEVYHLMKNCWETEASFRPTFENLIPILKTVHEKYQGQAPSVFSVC

For orientation: IC50 means the midpoint of a concentration-inhibition curve. Consider `O=C(Nc1ccc2cc1CCc1cccc(c1)Nc1ncc(Cl)c(n1)N2)c1cnccn1` [Example B44, N-[6-Chloro-2,4,8,22-tetraazatetracyclo[14.3.1.1(3,7).1(9,13)]docosa-1(20), 3(22),4,6,9(21),10,12,16,18-nonaen-12-yl]pyrazine-2-carboxamide bis(trifluoroacetate)], for which the IC50 in test [1] (Table B1) worked out at 22 nM; in test [2] (Table B1), 2.9 nM; in test [3] (setting [6]), 300 nM; in test [4] (Table B1), 13 nM; in test [5] (Table B1), 48 nM.
The like results for `O=C(Nc1ccc2cc1CCc1cccc(c1)Nc1ncc(Cl)c(n1)N2)c1ccc(F)cc1` [Example B49, N-[6-Chloro-2,4,8,22-tetraazatetracyclo[14.3.1.1(3,7).1(9,13)]docosa-1(20), 3(22),4,6,9(21),10,12,16,18-nonaen-12-yl]-4-fluorobenzamide trifluoroacetate] were, in that order, 1.4 nM, 0.54 nM, 80 nM, 0.59 nM and 3.6 nM.
As to `CS(=O)(=O)N1CCC(CC(=O)Nc2ccc3cc2CCc2cncc(c2)Nc2ncc(Cl)c(n2)N3)C1` (stereo not drawn) [Example A91, N-[6-Chloro-2,4,8,18,22-pentaazatetracyclo[14.3.1.1(3,7).1(9,13)]docosa-1(20),3(22),4,6,9(21),10,12,16,18-nonaen-12-yl]-2-[1-(methylsulfonyl)pyrrolidin-3-yl]acetamide bis(trifluoroacetate)], the IC50 in test [1] stood at 14 nM; in test [2] (setting [7]), 5.9 nM; in test [4] (setting [9]), 3.7 nM; in test [5] (setting [10]), 44 nM. The “ALK % of inhibition at a concentration of 500 nM or 1 mM” value (“ALK % of inhibition” for short) in test [3] (setting [8]) was 29%.
The like results for `Cc1ccnc(N2CCC(CC(=O)Nc3ccc4cc3CCc3cncc(c3)Nc3ncc(Cl)c(n3)N4)CC2)c1` [Example A176, N-[6-Chloro-2,4,8,18,22-pentaazatetracyclo[14.3.1.1(3,7).1(9,13)]docosa-1(20),3(22),4,6,9(21),10,12,16,18-nonaen-12-yl]-2-[1-(4-methylpyridin-2-yl)piperidin-4-yl]acetamide tris(trifluoroacetate)] were, in that order, over 200 nM, over 200 nM, 51 nM, over 200 nM and 25%.
Turning to `O=C(Nc1ccc2cc1CCc1cccc(c1)Nc1ncc(Cl)c(n1)N2)NC1CCCCC1` [Example B119, N-[6-Chloro-2,4,8,22-tetraazatetracyclo[14.3.1.1(3,7).1(9,13)]docosa-1(20), 3(22),4,6,9(21),10,12,16,18-nonaen-12-yl]-N′-cyclohexylurea trifluoroacetate], the IC50 in test [1] (Table B1) was 9.8 nM; in test [2] (Table B1) it was 3.3 nM; in test [4] (Table B1), 2.9 nM; in test [5] (Table B1) it was 48 nM. The “ALK % of inhibition” value in test [3] (setting [11]) is 19%.
As for `NC(=O)COc1ccc2cc1CCc1cccc(c1)Nc1ncc(Cl)c(n1)N2` [Example A15, 2-{[6-Chloro-2,4,8,22-tetraazatetracyclo[14.3.1.1(3,7).1(9,13)]docosa-1(20),3(22),4,6,9(21),10,12,16,18-nonaen-12-yl]oxy}acetamide trifluoroacetate], the IC50 came out at 3.4 nM in test [1], 1.1 nM in test [2] (setting [7]), 2.9 nM in test [4] (setting [9]) and 4.8 nM in test [5] (setting [10]). Besides, the “ALK % of inhibition” value in test [3] (setting [8]) stood at 79%.
For the compound `O=C(Nc1ccc(Cl)cc1)c1cc2cc(c1)Nc1nc(ncc1Cl)Nc1cccc(c1)CC2` [Example B15, 6-Chloro-N-(4-chlorophenyl)-2,4,8,22-tetraazatetracyclo[14.3.1.1(3,7).1(9,13)]docosa-1(20),3(22),4,6,9(21),10,12,16,18-nonaene-11-carboxamide trifluoroacetate], the IC50 in test [1] (Table B1) is over 1000 nM; in test [2] (Table B1), 111 nM; in test [3] (setting [6]) it was over 1000 nM; in test [4] (Table B1), 160 nM; in test [5] (Table B1) it was 365 nM.
Regarding `O=C(Nc1ccc2cc1CCc1cncc(c1)Nc1ncc(Cl)c(n1)N2)N[C@H]1CCN(C(=O)c2ccccc2)C1` [Example B227, N-[(3S)-1-benzoylpyrrolidin-3-yl]-N′-[6-chloro-2,4,8,18,22-pentaazatetracyclo[14.3.1.1(3,7).1(9,13)]docosa-1(20),3(22),4,6,9(21),10,12,16,18-nonaen-12-yl]urea bis(trifluoroacetate)], the IC50 in test [1] (Table B1) came to 33 nM; in test [2] (Table B1), 29 nM; in test [4] (Table B1), 1 nM; in test [5] (Table B1), 245 nM. Further, the “ALK % of inhibition” value in test [3] (setting [11]) was 25%.
As for `O=C(Nc1ccccc1)c1ccc2cc1CCc1cccc(c1)Nc1ncc(Cl)c(n1)N2` [Example B200, 6-Chloro-N-phenyl-2,4,8,22-tetraazatetracyclo[14.3.1.1(3,7).1(9,13)]docosa-1(20),3(22),4,6,9(21),10,12,16,18-nonaene-12-carboxamide trifluoroacetate], the IC50 in test [1] (Table B1) amounted to 85 nM; in test [2] (Table B1) it was 17 nM; in test [3] (setting [6]), 4400 nM; in test [4] (Table B1), 82 nM; in test [5] (Table B1), 118 nM.
As to `O=C(Nc1ccc2cc1CCc1cccc(c1)Nc1ncc(Cl)c(n1)N2)C1CCCC1` [Example B60, N-[6-Chloro-2,4,8,22-tetraazatetracyclo[14.3.1.1(3,7).1(9,13)]docosa-1(20), 3(22),4,6,9(21),10,12,16,18-nonaen-12-yl]cyclopentanecarboxamide trifluoroacetate], the IC50 in test [1] (Table B1) is 47 nM; in test [2] (Table B1), 8.4 nM; in test [3] (setting [6]), over 1000 nM; in test [4] (Table B1), 22 nM; in test [5] (Table B1) it was 20 nM.
With `Cc1oncc1S(=O)(=O)N1CCC(CC(=O)Nc2ccc3cc2CCc2cccc(c2)Nc2ncc(Cl)c(n2)N3)CC1` [Example A210, N-[6-Chloro-2,4,8,22-tetraazatetracyclo[14.3.1.1(3,7).1(9,13)]docosa-1(20),3(22),4,6,9(21),10,12,16,18-nonaen-12-yl]-2-{1-[(5-methylisoxazol-4-yl)sulfonyl]piperidin-4-yl}acetamide trifluoroacetate], the IC50 in test [1] was over 200 nM; in test [2] (setting [7]) it was 90 nM; in test [4] (setting [9]), 35 nM; in test [5] (setting [10]) it was over 200 nM. Further, the “ALK % of inhibition” value in test [3] (setting [8]) came to 20%.
Consider `O=C(O)c1cc2cc(c1)Nc1nc(ncc1Cl)Nc1cccc(c1)CC2` [Example B6, 6-Chloro-2,4,8,22-tetraazatetracyclo[14.3.1.1(3,7).1(9,13)]docosa-1(20),3(22),4,6,9(21),10,12,16,18-nonaene-11-carboxylic acid trifluoroacetate], for which the concentration for half-maximal inhibition (IC50) in test [1] (Table B1) is over 1000 nM; in test [2] (Table B1), 800 nM; in test [3] (setting [6]) it was over 1000 nM; in test [4] (Table B1), over 1000 nM; in test [5] (Table B1) it was over 1000 nM.
Consider `O=C(Nc1ccc2cc1CCc1cccc(c1)Nc1ncc(Cl)c(n1)N2)c1ccc(C(F)(F)F)nc1` [Example B77, N-[6-Chloro-2,4,8,22-tetraazatetracyclo[14.3.1.1(3,7).1(9,13)]docosa-1(20), 3(22),4,6,9(21),10,12,16,18-nonaen-12-yl]-6-(trifluoromethyl)nicotinamide bis(trifluoroacetate)], for which the IC50 in test [1] (Table B1) was 8 nM; in test [2] (Table B1) it was 2.2 nM; in test [4] (Table B1) it was 0.84 nM; in test [5] (Table B1), 7.6 nM. In test [3] (setting [11]), the “ALK % of inhibition” value turned out to be 54%.
Take `Oc1ccnc(Nc2ccc3cc2CCc2cccc(c2)Nc2ncc(Cl)c(n2)N3)n1` [Example B277, 2-{[6-Chloro-2,4,8,22-tetraazatetracyclo[14.3.1.1(3,7).1(9,13)]docosa-1(20),3(22),4,6,9(21),10,12,16,18-nonaen-12-yl]amino}pyrimidin-4-ol bis(trifluoroacetate)]: the IC50 in test [1] (Table B1) stood at 62 nM; in test [2] (Table B1) it was 5.9 nM; in test [4] (Table B1), 4.8 nM; in test [5] (Table B1), 359 nM. Also, the “ALK % of inhibition” value in test [3] (setting [11]) was determined as 54%.
For the compound `O=C(Nc1ccccc1)Nc1cc2cc(c1)OCCSc1cccc(c1)Nc1nc(ncc1Cl)N2` [Example D65, N-[6-Chloro-17-oxa-14-thia-2,4,8,24-tetraazatetracyclo[16.3.1.1(3,7).1(9,13)]tetracosa-1(22),3(24),4,6,9(23),10,12,18,20-nonaen-20-yl]-N′-phenylurea trifluoroacetate], the IC50 is 6.4 nM in test [1] (Table D1); 5.1 nM in test [2] (Table D1); over 1000 nM in test [3] (Table D1, 90 μM ATP); 18 nM in test [4] (Table D1); 16 nM in test [5] (Table D1).
